Data reported in patent US12173320B2, “Production of red blood cells and platelets from stem cells” (BOSTON MEDICAL CENTER CORPORATION, priority 2012, dated 2024).

Experiments:
[1] = tested on: day 30 MEPs; assay: EDU incorporation proliferation assay; format: cell-based, human; conditions: versus untreated cells
Excerpt: In a subsequent experiment, […] (EDU) incorporation in day 30 MEPs was used to compare proliferation of FICZ-treated MEPS and control untreated MEPs, EDU is a labeling chemical that intercolates into the DNA of a cell and allows for the explicit tracking of proliferation.

[2] = tested on: iPSC-derived MEPs; assay: Immunophenotyping of MEP lineage specification (CD235, CD71, CD41 FACS); format: cell-based, human; conditions: MEPs in feeder-free conditions, continuous FICZ, day 15 to 30 and later
Protocol: Roughly 10^5 cells were collected, spun, and re-suspended in 0.5% BSA in PBS. Samples were incubated for 30 min at ambient temperature with human antibodies including CD41a-FITC (BD 555466), CD235-PE (BD 555570), CD71-FITC (BD 555536), washed and spun at 3300 rpm for 7 min, and re-suspended in 0.5% BSA in PBS with 1 ug/ml Propidium Iodide. Samples were run on a BD FACScalibur using Cellquest Pro software and analyzed via FloJo 8.7. For ploidy analysis, cells were treated with 1.5% NP-40 (Boston Bioproducts P-872) and 62.5 ug/ml Propidium Iodide in PBS immediately before FACScalibur interrogation. For murine bone marrow, samples were first incubated for 5 min at ambient temperature with murine conjugated antibody CD16/32 (BD 553142) before a 30 min incubation with c-Kit-PE (BD 553355), CD41a-FITC (BD 553848), Ter119-PE (BD 553673). For cell viability assays, 2-3×10 ^5 cells were collected, re-suspended in 8.8 ug/ml Hoecsht 33342 in PBS supplemented with 5% FBS. Samples were then incubated in the dark at 37° C. for 15 min, washed, and re-suspended in 1 ug/ml Propidium Iodide in 5% FBS. Samples were run on an LSR-II machine with FACSDiva software and analyzed via FloJo 8.7.
In our previous studies in which we noted exponential expansion of iPSC-derived MEPs (FIG. 3), the AhR-mediated effect that we noted allowed us to culture cells for extended periods of time (>120 days). […]

[3] = tested on: red cell-depleted bone marrow from C57BL/6 mice; assay: MEP production in murine bone marrow culture (FACS); format: cell-based, mouse; conditions: 0.2 μM FICZ, 3 days, versus vehicle
Protocol: Representative FACS analysis dot plots of red cell depleted C57B6 bone marrow grown for 3 days in +/−0.2 μM FICZ. 1×10^5 cells were initially treated with CD16/32 Fc receptor block, followed by directly conjugated monoclonal antibodies for the designated markers.
Roughly 10^5 cells were collected, spun, and re-suspended in 0.5% BSA in PBS. Samples were incubated for 30 min at ambient temperature with human antibodies including CD41a-FITC (BD 555466), CD235-PE (BD 555570), CD71-FITC (BD 555536), washed and spun at 3300 rpm for 7 min, and re-suspended in 0.5% BSA in PBS with 1 ug/ml Propidium Iodide. Samples were run on a BD FACScalibur using Cellquest Pro software and analyzed via FloJo 8.7. For ploidy analysis, cells were treated with 1.5% NP-40 (Boston Bioproducts P-872) and 62.5 ug/ml Propidium Iodide in PBS immediately before FACScalibur interrogation. For murine bone marrow, samples were first incubated for 5 min at ambient temperature with murine conjugated antibody CD16/32 (BD 553142) before a 30 min incubation with c-Kit-PE (BD 553355), CD41a-FITC (BD 553848), Ter119-PE (BD 553673). For cell viability assays, 2-3×10 ^5 cells were collected, re-suspended in 8.8 ug/ml Hoecsht 33342 in PBS supplemented with 5% FBS. […] Samples were run on an LSR-II machine with FACSDiva software and analyzed via FloJo 8.7. […]

[4] = tested on: AhR (CYP1B1 target gene expression); assay: In vivo CYP1B1 target gene expression in liver and spleen (quantitative RT-PCR); set-up: species or system mouse; conditions: after 3 weeks of FICZ
Protocol: RNA was extracted using the RNeasy kit (Qiagen) according to the manufacturer's instructions and DNase treated using the DNA-free kit (Ambion AM1906). Reverse transcription into cDNA was performed using the High Capacity cDNA Reverse Transcription Kit (Applied Biosystems 4368814). Quantitative (real time) PCR amplification of cDNA was performed using Taqman probes for AHR (Hs00169233 ml), CYP1B1 (Hs002382916 sl), HBA (Hs00361191 gl), HBB (Hs00758889 sl), HBG (Hs01629437 sl), vWF (Hs00169795 ml), PF4 (Hs00427220 gl), NF-E2 (Hs00232351 ml) and CD62P (Hs00927900 ml) and run on the Applied Biosystems StepOne machine. Relative gene expression was normalized to B-actin (Hs99999903 ml).
C57B16 mice were injected daily intraperitoneally with FICZ suspended in vegetable oil using a weekly dose escalation scheme (Week 1: 1 mg/kg; Week 2: 2 mg/kg; Week 3: 4 mg/kg). Blood cell counts were assayed by Hemavet quantification of peripheral blood bleeds, at all 3 time points (Day 7, 14, and 21). Following the 3 week time point, mice were sacrificed and livers and spleens harvested for quantitative RT-PCR analyses.
To determine if FICZ treatment or whole animals would affect RBC or platelet production, C57B16 mice were injected daily intraperitoneally with FICZ suspended in vegetable oil using a weekly dose escalation scheme (Week 1: 1 mg/kg; Week 2: 2 mg/kg; Week 3: 4 mg/kg). […]

- CYP1B1 target gene expression in liver [4]: robust upregulation
- CYP1B1 target gene expression in spleen [4]: robust upregulation
SMILES: O=Cc1c2c(cc3c1=Nc1ccccc1-3)=Nc1ccccc1-2 [FICZ, 6-formylindolo[3,2-b]carbazole]
- proliferation by EDU incorporation [1]: far more proliferative than untreated cells
- erythroid specification (CD71 / CD235 expression) [2]: progressive erythroid specification and maturation
- CD41+ Ter119+ MEPs in culture [3]: distinct populations
